These are literature values, as cited in US20100120744A1, “ACETAM[…] NMDA RECEPTORS” (AUSPEX PHARMACEUTICALS, INC., priority 2008, published 2010).

The conditions of this data set: in vivo.

For the compound `CC(=O)NCCCS(=O)(=O)O` [Acamprosate, 3-acetamidopropane-1-sulfonic acid], the “metabolism by the body” value is “not metabolized”.
